Reference: PubChem BioAssay AID504760 (National Center for Advancing Translational Sciences (NCATS), 2011)

Tested on: mouse plasma stability, LC-MS/MS, 48 h
Experiment: Inhibitors of Cruzain: Mouse Plasma Stability Profiling
Settings: at 2 µM; stronger effect = higher value
Text: Chagas Disease is a neglected tropical disease that affects over 16 million people in Latin America. The cysteine protease cruzain is essential for the survival Trypanosoma cruzi, the parasitic agent responsible for Chagas disease. Potential intervention for T. cruzi includes the inhibition of cruzain. This bioassay will summarize the ongoing development of small molecule cruzain inhbitiors. Currently, a screen of ~200k compounds and through extensive follow-up work a probe was identified. To further characterize the probe, it was tested in in vitro ADME assays. The stability of the lead compound in mouse plasma is tested because this parameter has a significant impact on many ADME-concerned properties of drugs, such as uptake, distribution, transport, and bioavailability. NIH Chemical Genomics Center [NCGC] NIH Molecular Libraries Probe Production Centers Network [MLPCN] MLSCN Grant: DA024891-01 PI Name: Dr. Brian Shoichet; University of California, San Francisco
2uM of compound is incubated in mouse plasma; the reference compound is procaine. Compounds are incubated at 37 deg C for the pre-determined time periods and the when aliquots are removed. Samples are analyzed with LC-MS/MS.

Structure (SMILES): Cc1ccc(OCCn2c(CCNC(=O)C3CCCCC3)nc3ccccc32)cc1
- percent remaining: 95%
